Assay results: PMC13197777, “Distinct 2-phenylimidazo[1,2-a]pyridine derivatives that inhibit breast cancer cell proliferation identified as AHR ligands” (iScience, 2026)
Converted amounts (≈) assume the structure as drawn. Read-outs that look alike come from different tables or passages of the source.

Legend:
[1] = Thermodynamic solubility, shake-flask method; assay type: physicochemical; settings: HEPES buffer 0.1 M pH 7.4, 21 °C
Protocol: Thermodynamic solubility was determined using the classical shake-flask method. The solid compound (4 mg) was suspended in 1 mL HEPES buffer (0.1 M, pH 7.4) and constantly stirred at 21 °C for 24 h. […] The injection volume for all analyses was 50 μL and the flow rate was kept at 1 mL/min during the analysis. A mobile phase gradient method was applied as a method with 5% solvent B to 99% solvent B in 5 min, followed by 3 min of elution at 99% solvent B.
Calibration curve was generated from a serial dilution of the respective analyte in DMSO at 2.5, 1.25, 0.625, 0.313, 0.156, 0.078, 0.039 mM starting from a 10 mM DMSO stock solution. Subsequently, 2 μL of each dilution was added to 198 μL of a buffer (HEPES, 0.1 M, pH 7.4)/acetonitrile mixture in a 3:2 ratio yielding final dilutions of 25, 12.5, 6.25, 3.125, 1.562, 0.781, 0.391 μM. These were then subjected to HPLC analysis as described above.
Using the results from the linear regression of the internal calibration measurement points (Figure S5) and the mean AUC values from the saturated aqueous solutions, the concentration C of the analytes in the saturated aqueous solution, expressed in μM, were calculated using Equation 2:(Equation 1) AUC=Slope·C+YIntercept (Equation 2) C=AUC−YIntercept/Slope

[2] = tested on: AHR target genes CYP1A1, CYP1B1, ALDH3A1; settings: human, 16 h, 1 µM
MCF-7 cells = assay: Clonogenic assay in MCF-7 cells with AHR antagonist CH223191; assay type: cell-based, human; settings: MCF-7, 10 nM compound, 1 μM CH223191, 14 days
Protocol: (§1) Cells were seeded at a density of 1–2×10^3 cells/well in a 6-well plate and treated with increasing concentrations of the X compounds for 14–21 days. Medium and compounds were renewed every 7 days. The experiments were terminated by fixing the cells with methanol and the colonies formed were visualized after staining with 0.5% crystal violet (w/v) in 20% methanol (v/v). Plates were photographed and the area covered by the colonies was calculated using the ColonyArea Plugin for Fiji (RRID:SCR_003070).[20]

ERα in MCF-7 cells = assay: Immunoblot of ERα in MCF-7 cells; assay type: cell-based, human; settings: MCF-7, 48 h, increasing concentrations up to 1 μM
Protocol: To determine the relative expression of proteins by Western blotting, cells were first washed with ice-cold phosphate buffered saline (PBS). Subsequently, they were lysed in ice-cold NP40 lysis buffer (1%NP-40, 50 mM Tris-HCl, pH 8.0, 150 mM NaCl, 5 mM Ethylenediaminetetraacetic acid [EDTA], 1 mM PMSF) on ice. DNA was degraded by sonification (five pulses at 50 amplitudes). Protein concentration was determined, and equal amounts of protein were separated on a 9% SDS-PAGE gel. The proteins were transferred onto nitrocellulose membrane by a standard Western blotting protocol and the membranes were incubated with the following antibodies: ERα (Santa Cruz Biotechnology, sc-8002, RRID: AB_627558) and PCNA (Santa Cruz Biotechnology, sc-56, RRID: AB_628110), followed by incubation with HRP labeled Goat anti-mouse Immunoglobulins (DAKO, P0447, RRID: AB_2617137).

[3] = Compound stability in aqueous environment; assay type: physicochemical; settings: 12.5 μM, HEPES pH 7.4/acetonitrile 3:2, 1% DMSO, 21 °C, 5 days
Protocol: The stability of the compounds was evaluated at a concentration of 12.5 μM in a 3:2 mixture of buffer (HEPES, 0.1 M, pH 7.4) and acetonitrile, with 1% DMSO. Acetonitrile was added because the concentration of 12.5 μM exceeded the thermodynamic solubility of the compounds in the buffer. This addition thereby prevented the formation of precipitates and a gradual decrease in compound concentration during the measurement. The resulting solution was stirred at 21 °C in a sealed vial (crimp neck vials, 5 mL, clear (Cat. No. 548-0611A) in combination with natural rubber septa (548-0565A) and aluminum crimp caps (548-3278A), VWR International) for 5 days. […] The AUC measured was subsequently plotted as a function of the incubation time (Figure S3). No signs of decomposition could be observed over the given time.

MCF-7 luc Y537S = assay: Clonogenic assay (clonal expansion), MCF-7 cells with Y537S ER mutation; assay type: cell-based; settings: Homo sapiens, MCF7, 336 h
Protocol: as §1

MCF-7 luc = assay: Clonogenic assay (clonal expansion), MCF-7 cells expressing wild-type ER; assay type: cell-based; settings: Homo sapiens, MCF7, 336 h
Protocol: as §1

PDxO#28 = assay: Organoid viability, CellTiter-Glo 3D; assay type: cell-based, human; settings: PDxO#28 in 3D Matrigel, 7 days, increasing doses; same results in PDO#268 and PDO#480
Text: Organoids were generated from patients’ samples and from patient-derived xenograft (PDX) tumors, as previously described.[25] PDX were derived from BCRO#28, an ER^+ breast cancer sample collected from a treatment naive patient. PDO#268 was derived from BCRO#268, an ER^+ breast cancer sample collected from treatment naive patient. PDO#480 was derived from BCRO#480, an ER^+ breast cancer sample collected from a patient subjected to chemotherapy in neo-adjuvant setting. Briefly, tumors freshly explanted from mice were mechanically shredded, digested with collagenase (Merck) and filtered through a 100 μm strainer. Digested material (isolated cells and small cell clusters) was centrifuged and embedded in 3D-matrix drops (reduced growth factor Basement Membrane Extract, BME, R&D systems), then overlaid with breast cancer organoid medium.[25] For 3D survival curves under treatment, organoids were embedded in BME drops and, after 24 - 48 h, drugs were added. Fresh drug-containing medium was replaced on day 4. On day 7 of treatment, CellTiter-Glo 3D Cell Viability Assay (Promega) was added and luminescent signal from viable organoids was recorded on Infinite M1000 Pro instrument (Tecan).

[4] = tested on: MCF-7 luc D538G and MCF-7 luc Y537S; assay: Clonogenic assay, cells expressing the two mutant ERs (range over both); assay type: cell-based; settings: Homo sapiens, MCF7, read-out: IC50 clonal expansion in cells expressing the two mutant ERs
Protocol: as §1

MCF-7 luc D538G = assay: Clonogenic assay (clonal expansion), MCF-7 cells with D538G ER mutation; assay type: cell-based; settings: Homo sapiens, MCF7, 336 h
Protocol: as §1

ERα full-length = target: T1, ERα full-length (Homo sapiens, UniProt P03372); assay: PolarScreen ERα Competitor Assay (fluorescence polarization); assay type: binding
T1 construct: 34 nM ERα full-length and 1.4 nM Fluormone EL Red were incubated; purchased ThermoFisher A15884
T1 sequence (P03372 1-595): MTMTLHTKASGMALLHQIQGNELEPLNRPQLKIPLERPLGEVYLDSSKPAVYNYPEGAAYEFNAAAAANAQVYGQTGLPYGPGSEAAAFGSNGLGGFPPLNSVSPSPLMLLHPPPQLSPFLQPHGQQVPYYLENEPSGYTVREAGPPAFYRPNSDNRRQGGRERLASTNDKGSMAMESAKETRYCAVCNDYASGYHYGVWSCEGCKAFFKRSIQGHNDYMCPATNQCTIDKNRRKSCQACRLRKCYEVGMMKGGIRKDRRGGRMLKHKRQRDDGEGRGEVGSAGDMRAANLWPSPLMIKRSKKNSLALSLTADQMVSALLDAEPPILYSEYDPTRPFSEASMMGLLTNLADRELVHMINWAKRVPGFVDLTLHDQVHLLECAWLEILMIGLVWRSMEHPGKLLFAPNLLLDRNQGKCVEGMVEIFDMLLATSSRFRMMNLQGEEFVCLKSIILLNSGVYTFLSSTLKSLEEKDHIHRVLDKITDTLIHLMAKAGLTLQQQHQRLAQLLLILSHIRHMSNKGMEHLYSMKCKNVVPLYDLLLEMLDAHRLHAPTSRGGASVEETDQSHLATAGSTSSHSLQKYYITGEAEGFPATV
Protocol: The PolarScreen Estrogen Receptor-Alpha Competitor Assay, Red (ThermoFisher, A15884) was used to determine if the X compounds bind to ERα. The assay was performed according to the manufacturer’s protocol.

[5] = tested on: ERα LBD or full-length ERα; assay: Nuclear receptor activity profiling (NAPing), E2-induced ERα-coregulator interaction; assay type: biochemical; settings: E2 −8.5 logM, compound −5.5 logM, LBD or full-length ER
Protocol: Preparation of assay mixes with ERα recombinant ligand binding domain (LBD) and full-length ERα in MCF-7 extracts and measurement of coregulator recruitment on the NAPing platform (PML, Oss, The Netherlands) was performed as described previously.[68]^,[69] […] Unbound ERα and antibodies were removed by washing. Residual ERα binding to each coregulator motifs was recorded on tiff images and quantified using an R-based analysis software package (PML, Oss, The Netherlands).

CTC-ITB-01 cells = assay: cells; assay type: cell-based; settings: Homo sapiens, read-out: LC50
Protocol: LC50 values were measured using the CyQUANT NF Cell Proliferation Assay Kit (Thermo Fisher). CTC-ITB-01 cells were plated at a density of 2x10^3 cells/well in 96-well plates and treated the following day with serial dilutions of the test compounds. After incubation for the indicated time, cells were stained with CyQUANT dye according to the manufacturer’s protocol and incubated at 37°C for 30 min. Fluorescence was measured using a Tecan Infinite M Nano+ (excitation: 485 nm; emission: 530 nm). For the calculation of the LC50 the fluorescence was plotted against the Log10 of the inhibitor concentration in nM as x values and the LC50 values were calculated with 95% confidence intervals (n = 4).

[6] = parameters: method as in earlier work; settings: IUPAC Digitized pKa Dataset ref 30; cited from earlier work
[7] = HEPES buffer, 21 °C, pH 7.4, aqueous buffer, thermodynamic from solid

Compound: Fc1ccccc1-c1cn2cc(C(F)(F)F)cc(Cl)c2n1 [X19720]
- solubility thermodynamic at 24 h [1]: 1.4 µM (≈ 0.441 µg/mL)
- solubility thermodynamic at 24 h [1, 7]: 1.35 µM (≈ 0.425 µg/mL)
- expression of AHR target genes (RT-PCR) [2]: enhanced the transcriptional activity of the AHR target genes in both MCF-7 and T47D cells
- inhibition of colony expansion in the presence of AHR antagonist CH223191 (MCF-7 cells): clearly abrogated by the AHR antagonist CH223191
- ERα destabilization (immunoblot) (ERα in MCF-7 cells): most proficient in destabilizing ERα
- stability in aqueous environment [3]: no obvious decomposition detected

Compound: C[C@]12CC[C@@H]3c4ccc(O)cc4C[C@@H](CCCCCCCCC[S+]([O-])CCCC(F)(F)C(F)(F)F)[C@H]3[C@@H]1CC[C@@H]2O (some centres unmarked) [Fulvestrant, reference compound]
- IC50 (MCF-7 luc Y537S; read-out: IC50 clonal expansion, Figure 1B, MCF-7 luc Y537S, absence of E2, 14 days): 6.6 nM
- IC50 (MCF-7 luc Y537S; read-out: IC50 clonal expansion, Figure 1C, MCF-7 luc Y537S + 10 nM E2, 14 days): 150 nM
- IC50 (MCF-7 luc Y537S; read-out: IC50 clonal expansion, Figure 1D, MCF-7 luc Y537S, absence of E2, 14 days): 7.47 nM
- IC50 (MCF-7 luc Y537S; read-out: IC50 clonal expansion, Figure 1E, MCF-7 luc Y537S + 10 nM E2, 14 days): 147 nM
- IC50 (MCF-7 luc; Figure 1B, MCF-7 luc, absence of E2, 14 days): 0.14 nM
- IC50 (MCF-7 luc; Figure 1C, MCF-7 luc + 10 nM E2, 14 days): 69.2 nM
- IC50 (MCF-7 luc; Figure 1D, MCF-7 luc, absence of E2, 14 days): 0.12 nM
- IC50 (MCF-7 luc; Figure 1E, MCF-7 luc + 10 nM E2, 14 days): 78.1 nM
- organoid viability (survival) (PDxO#28): modest
- inhibition of colony expansion in the presence of AHR antagonist CH223191 (MCF-7 cells): inhibited colony growth in the presence of CH223191
- IC50 [4]: 6.6 to 9.57 nM
- IC50 (MCF-7 luc D538G; read-out: IC50 clonal expansion, Figure 1B, MCF-7 luc D538G, absence of E2, 14 days): 9.57 nM
- IC50 (MCF-7 luc D538G; read-out: IC50 clonal expansion, Figure 1C, MCF-7 luc D538G + 10 nM E2, 14 days): 1910 nM
- IC50 (MCF-7 luc D538G; read-out: IC50 clonal expansion, Figure 1D, MCF-7 luc D538G, absence of E2, 14 days): 12.2 nM
- IC50 (MCF-7 luc D538G; read-out: IC50 clonal expansion, Figure 1E, MCF-7 luc D538G + 10 nM E2, 14 days): 1910 nM
- displacement of the Fluormone tracer from ERα (ERα full-length): efficiently displaced the Fluormone tracer
- disruption of coactivator peptide binding to E2-liganded ERα [5]: clearly disrupted binding of the coactivator peptides
- CC50 (CTC-ITB-01 cells; 48 h): 8.8 µM
- CC50 (CTC-ITB-01 cells; 120 h): 6.3 µM

Compound: c1ccn2ccnc2c1 [Imidazo(1,2-a)pyridine]
- experimental pKa [6]: 6.79

Compound: FC(F)(F)c1cc(Cl)c2nc(-c3ccccc3)cn2c1 [X15696]
- solubility thermodynamic at 24 h [1]: 5 µM (≈ 1.48 µg/mL)
- solubility thermodynamic at 24 h [1, 7]: 5.11 µM (≈ 1.52 µg/mL)
- expression of AHR target genes (RT-PCR) [2]: enhanced the transcriptional activity of the AHR target genes in both MCF-7 and T47D cells
- inhibition of colony expansion in the presence of AHR antagonist CH223191 (MCF-7 cells): clearly abrogated by the AHR antagonist CH223191
- ERα destabilization (immunoblot) (ERα in MCF-7 cells): most proficient in destabilizing ERα
- stability in aqueous environment [3]: no obvious decomposition detected
